Assay results published in ChEMBL document CHEMBL4043168, “The design and SAR of a novel series of 2-aminopyridine based LRRK2 inhibitors” (Bioorg Med Chem Lett, 2017).

Tests used:
[1] = molecular target: 5'-AMP-activated protein kinase catalytic subunit alpha-1 (Homo sapiens) (UniProt Q13131); assay: Inhibition of AMPKa1 ATP loop (IGHYILGDTLGVGTFGKVK) in human PBMC at 1 uM; details: pooled result: one value given for 5 cell lines, strains, targets or settings
[2] = molecular target: T1, Phosphatidylinositol 4,5-bisphosphate 3-kinase catalytic subunit delta isoform (Homo sapiens) (UniProt O00329); assay: Inhibition of PIK3CD ATP binding site (TKVNWLAHNVSKDNRQ) in human PBMC at 1 uM
T1 sequence (whole entry): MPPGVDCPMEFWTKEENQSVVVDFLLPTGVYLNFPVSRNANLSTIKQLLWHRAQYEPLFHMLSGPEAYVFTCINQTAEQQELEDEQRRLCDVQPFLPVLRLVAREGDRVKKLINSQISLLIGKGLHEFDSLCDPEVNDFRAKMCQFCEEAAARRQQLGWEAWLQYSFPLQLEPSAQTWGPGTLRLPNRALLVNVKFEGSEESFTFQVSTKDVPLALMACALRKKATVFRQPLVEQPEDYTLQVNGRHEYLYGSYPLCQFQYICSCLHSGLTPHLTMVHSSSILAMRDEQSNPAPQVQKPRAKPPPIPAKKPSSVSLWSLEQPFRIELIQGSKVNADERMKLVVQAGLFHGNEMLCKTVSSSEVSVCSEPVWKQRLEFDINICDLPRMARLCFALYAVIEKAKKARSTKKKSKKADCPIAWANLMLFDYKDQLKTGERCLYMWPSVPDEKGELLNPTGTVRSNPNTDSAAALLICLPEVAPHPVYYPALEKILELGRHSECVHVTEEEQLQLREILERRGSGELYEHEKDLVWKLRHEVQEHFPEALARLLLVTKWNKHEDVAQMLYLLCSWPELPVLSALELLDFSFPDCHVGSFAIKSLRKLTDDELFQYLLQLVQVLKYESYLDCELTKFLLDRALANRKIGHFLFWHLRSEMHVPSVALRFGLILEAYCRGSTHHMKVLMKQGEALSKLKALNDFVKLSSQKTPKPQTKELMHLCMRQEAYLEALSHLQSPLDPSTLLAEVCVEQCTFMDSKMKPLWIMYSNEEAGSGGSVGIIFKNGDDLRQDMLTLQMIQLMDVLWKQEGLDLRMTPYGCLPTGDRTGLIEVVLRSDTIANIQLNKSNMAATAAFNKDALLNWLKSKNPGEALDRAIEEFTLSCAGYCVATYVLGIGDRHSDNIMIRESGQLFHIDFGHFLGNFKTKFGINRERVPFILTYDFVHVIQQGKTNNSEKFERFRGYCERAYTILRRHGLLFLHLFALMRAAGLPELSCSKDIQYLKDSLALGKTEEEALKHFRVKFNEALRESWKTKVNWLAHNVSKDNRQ

[3] = molecular target: MAP/microtubule affinity-regulating kinase 3 (Homo sapiens) (UniProt P27448); assay: Inhibition of MARK3 conserved Lys1 (EVAIKIIDK) in human PBMC at 0.1 uM
MAP/microtubule affinity-regulating kinase 3 (Homo sapiens), sequence (P27448 whole entry, looked up): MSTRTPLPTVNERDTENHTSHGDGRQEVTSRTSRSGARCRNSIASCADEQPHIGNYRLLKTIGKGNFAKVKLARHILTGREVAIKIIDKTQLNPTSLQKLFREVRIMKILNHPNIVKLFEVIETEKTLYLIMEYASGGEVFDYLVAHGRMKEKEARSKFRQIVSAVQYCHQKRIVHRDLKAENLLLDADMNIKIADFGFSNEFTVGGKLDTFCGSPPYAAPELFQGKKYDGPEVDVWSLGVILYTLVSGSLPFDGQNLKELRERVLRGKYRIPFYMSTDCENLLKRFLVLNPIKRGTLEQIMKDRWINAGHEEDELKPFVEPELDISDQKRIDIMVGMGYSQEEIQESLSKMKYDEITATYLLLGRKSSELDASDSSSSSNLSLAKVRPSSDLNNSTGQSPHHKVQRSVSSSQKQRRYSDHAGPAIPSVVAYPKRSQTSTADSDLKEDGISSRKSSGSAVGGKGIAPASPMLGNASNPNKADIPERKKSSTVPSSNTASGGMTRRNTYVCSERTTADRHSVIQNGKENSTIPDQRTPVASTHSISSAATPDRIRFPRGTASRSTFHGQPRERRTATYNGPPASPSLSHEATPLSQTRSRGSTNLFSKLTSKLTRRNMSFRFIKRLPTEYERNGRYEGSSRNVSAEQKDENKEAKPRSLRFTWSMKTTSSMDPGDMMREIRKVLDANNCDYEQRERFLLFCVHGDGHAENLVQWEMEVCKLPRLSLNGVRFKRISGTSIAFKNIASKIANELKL

[4] = molecular target: Cyclin-dependent kinase 5 (Homo sapiens) (UniProt Q00535); assay: Inhibition of CDK5 labeling at conserved Lys1 (NRETHEIVALKR) in human PBMC at 0.1 uM
Cyclin-dependent kinase 5 (Homo sapiens), sequence (Q00535 whole entry, looked up): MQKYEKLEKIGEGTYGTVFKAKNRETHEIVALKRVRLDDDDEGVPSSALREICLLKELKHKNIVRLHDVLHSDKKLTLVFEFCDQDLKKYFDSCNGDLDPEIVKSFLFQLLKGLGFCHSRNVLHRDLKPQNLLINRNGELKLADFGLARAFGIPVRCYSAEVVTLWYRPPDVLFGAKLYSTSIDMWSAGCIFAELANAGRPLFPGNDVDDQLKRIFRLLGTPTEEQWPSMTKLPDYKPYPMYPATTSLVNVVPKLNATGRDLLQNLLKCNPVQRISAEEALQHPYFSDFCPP

[5] = molecular target: Tyrosine-protein kinase Fer (Homo sapiens) (UniProt P16591); assay: Inhibition of FER conserved Lys2 (QEDGGVYSSSGLKQIPIK) in human PBMC at 0.1 uM
Tyrosine-protein kinase Fer (Homo sapiens), sequence (P16591 whole entry, looked up): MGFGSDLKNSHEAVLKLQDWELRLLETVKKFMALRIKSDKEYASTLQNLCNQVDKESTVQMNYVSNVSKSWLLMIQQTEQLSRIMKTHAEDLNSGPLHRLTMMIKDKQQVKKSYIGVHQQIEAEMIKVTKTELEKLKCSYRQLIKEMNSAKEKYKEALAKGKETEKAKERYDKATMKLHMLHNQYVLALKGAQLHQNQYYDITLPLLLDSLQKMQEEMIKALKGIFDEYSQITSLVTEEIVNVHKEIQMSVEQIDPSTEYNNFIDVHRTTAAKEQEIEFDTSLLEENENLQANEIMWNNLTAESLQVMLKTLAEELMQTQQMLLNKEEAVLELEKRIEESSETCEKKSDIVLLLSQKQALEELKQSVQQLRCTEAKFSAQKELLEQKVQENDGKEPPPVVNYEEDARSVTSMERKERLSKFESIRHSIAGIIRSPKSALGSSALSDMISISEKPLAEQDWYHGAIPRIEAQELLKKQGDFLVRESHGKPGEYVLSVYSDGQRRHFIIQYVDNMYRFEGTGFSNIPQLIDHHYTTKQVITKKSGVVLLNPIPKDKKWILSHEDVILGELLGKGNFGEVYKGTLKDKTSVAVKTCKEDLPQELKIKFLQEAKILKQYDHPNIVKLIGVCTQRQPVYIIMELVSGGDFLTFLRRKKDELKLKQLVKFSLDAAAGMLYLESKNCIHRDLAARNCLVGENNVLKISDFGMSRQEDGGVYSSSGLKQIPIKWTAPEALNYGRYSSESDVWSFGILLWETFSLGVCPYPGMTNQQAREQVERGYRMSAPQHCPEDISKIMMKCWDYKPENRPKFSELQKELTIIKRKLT

[6] = molecular target: Calcium/calmodulin-dependent protein kinase type II subunit alpha (Homo sapiens) (UniProt Q9UQM7); assay: Inhibition of CaMK2a labeling at conserved Lys2 (DLKPENLLLASK) in human PBMC at 0.1 uM
Calcium/calmodulin-dependent protein kinase type II subunit alpha (Homo sapiens), sequence (Q9UQM7 whole entry): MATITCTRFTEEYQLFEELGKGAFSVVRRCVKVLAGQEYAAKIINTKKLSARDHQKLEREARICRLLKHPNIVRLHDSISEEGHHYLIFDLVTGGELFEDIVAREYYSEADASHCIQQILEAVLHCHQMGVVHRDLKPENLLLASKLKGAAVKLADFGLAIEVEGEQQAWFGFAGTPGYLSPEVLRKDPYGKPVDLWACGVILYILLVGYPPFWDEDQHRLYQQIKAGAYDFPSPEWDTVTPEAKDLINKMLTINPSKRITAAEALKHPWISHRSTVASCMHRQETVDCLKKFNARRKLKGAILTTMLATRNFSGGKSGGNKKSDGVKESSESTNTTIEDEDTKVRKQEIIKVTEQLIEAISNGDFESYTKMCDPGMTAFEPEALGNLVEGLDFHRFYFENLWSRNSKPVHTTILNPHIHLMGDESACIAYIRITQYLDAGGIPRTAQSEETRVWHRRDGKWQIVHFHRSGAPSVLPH

[7] = test system: MDR1; assay: Efflux ratio of apparent permeability from basolateral to apical over apical to basolateral side in MDCK cells harboring MDR1; assay type: ADME, cell-based, Canis lupus familiaris; details: dog
[8] = molecular target: RAC-alpha serine/threonine-protein kinase (Homo sapiens) (UniProt P31749); assay: Inhibition of AKT1 labeling at ATP binding site (GTFGKVILVK) in human PBMC at 0.1 uM
RAC-alpha serine/threonine-protein kinase (Homo sapiens), sequence (P31749 whole entry, the tested form may be a part): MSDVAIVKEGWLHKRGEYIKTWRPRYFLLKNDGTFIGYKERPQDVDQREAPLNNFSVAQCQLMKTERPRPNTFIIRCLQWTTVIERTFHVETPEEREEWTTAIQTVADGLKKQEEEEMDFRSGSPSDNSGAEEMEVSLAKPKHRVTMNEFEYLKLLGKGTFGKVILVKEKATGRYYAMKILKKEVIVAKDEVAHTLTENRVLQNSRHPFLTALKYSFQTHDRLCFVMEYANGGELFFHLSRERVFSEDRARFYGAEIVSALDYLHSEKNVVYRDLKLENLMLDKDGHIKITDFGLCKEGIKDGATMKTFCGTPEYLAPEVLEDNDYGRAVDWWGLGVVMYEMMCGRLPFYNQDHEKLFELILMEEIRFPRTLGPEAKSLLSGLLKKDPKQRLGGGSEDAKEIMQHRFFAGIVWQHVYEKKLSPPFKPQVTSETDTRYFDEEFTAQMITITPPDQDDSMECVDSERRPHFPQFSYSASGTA

[9] = molecular target: T2, Tyrosine-protein kinase JAK3 (Homo sapiens) (UniProt P52333); assay: Inhibition of JAK3 domain2 activation Loop (IADFGLAKLLPLDKDYYVVR) in human PBMC at 0.1 uM
T2 sequence (whole entry): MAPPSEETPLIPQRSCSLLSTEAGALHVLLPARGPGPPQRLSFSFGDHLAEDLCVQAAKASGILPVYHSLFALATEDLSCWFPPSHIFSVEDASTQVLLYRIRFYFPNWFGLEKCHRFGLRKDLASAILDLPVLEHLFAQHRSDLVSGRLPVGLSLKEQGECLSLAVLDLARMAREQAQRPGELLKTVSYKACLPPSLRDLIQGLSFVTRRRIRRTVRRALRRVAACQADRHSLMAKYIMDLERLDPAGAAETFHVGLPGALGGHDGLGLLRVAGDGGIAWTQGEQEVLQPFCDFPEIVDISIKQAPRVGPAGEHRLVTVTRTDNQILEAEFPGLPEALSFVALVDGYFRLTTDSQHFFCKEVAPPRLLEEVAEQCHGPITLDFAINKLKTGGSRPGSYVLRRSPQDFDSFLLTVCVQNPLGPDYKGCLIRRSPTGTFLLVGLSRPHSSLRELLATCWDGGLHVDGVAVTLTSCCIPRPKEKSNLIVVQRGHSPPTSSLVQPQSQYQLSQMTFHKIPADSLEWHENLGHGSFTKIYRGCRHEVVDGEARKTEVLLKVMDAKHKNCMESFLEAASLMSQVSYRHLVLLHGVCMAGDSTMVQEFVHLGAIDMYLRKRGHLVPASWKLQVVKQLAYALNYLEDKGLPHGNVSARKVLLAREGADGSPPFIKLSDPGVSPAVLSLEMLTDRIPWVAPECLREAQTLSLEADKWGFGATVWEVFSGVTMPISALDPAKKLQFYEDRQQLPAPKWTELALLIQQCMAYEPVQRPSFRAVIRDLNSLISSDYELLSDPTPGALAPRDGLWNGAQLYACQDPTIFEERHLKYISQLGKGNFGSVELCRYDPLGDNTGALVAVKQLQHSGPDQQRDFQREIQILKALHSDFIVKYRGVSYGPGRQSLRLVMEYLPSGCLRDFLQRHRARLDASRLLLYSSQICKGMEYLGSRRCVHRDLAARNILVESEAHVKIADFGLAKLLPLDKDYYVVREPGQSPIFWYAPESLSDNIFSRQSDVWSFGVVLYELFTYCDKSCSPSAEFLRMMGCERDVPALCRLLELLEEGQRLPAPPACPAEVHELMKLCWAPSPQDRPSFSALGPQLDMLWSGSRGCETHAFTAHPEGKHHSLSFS

[10] = molecular target: Mitogen-activated protein kinase 14 (Homo sapiens) (UniProt Q16539); assay: Inhibition of p38a (QELNKTIWEVPER) in human PBMC at 0.1 uM
Mitogen-activated protein kinase 14 (Homo sapiens), sequence (Q16539 whole entry, canonical isoform): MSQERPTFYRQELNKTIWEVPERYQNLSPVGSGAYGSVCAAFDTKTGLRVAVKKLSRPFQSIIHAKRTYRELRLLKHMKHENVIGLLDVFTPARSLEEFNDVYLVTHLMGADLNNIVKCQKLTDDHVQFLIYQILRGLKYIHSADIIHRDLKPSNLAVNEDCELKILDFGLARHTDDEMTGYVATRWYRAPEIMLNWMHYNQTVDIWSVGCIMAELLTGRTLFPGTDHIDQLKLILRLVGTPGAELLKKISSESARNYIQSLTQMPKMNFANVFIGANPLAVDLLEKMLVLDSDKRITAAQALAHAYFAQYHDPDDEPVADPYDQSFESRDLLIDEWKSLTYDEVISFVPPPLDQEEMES

[11] = molecular target: T1, Phosphatidylinositol 4,5-bisphosphate 3-kinase catalytic subunit delta isoform (Homo sapiens); assay: Inhibition of PIK3CD ATP binding site (VNWLAHNVSKDNRQ) in human PBMC at 1 uM

5'-AMP-activated protein kinase catalytic subunit alpha-1 (Homo sapiens), sequence (Q13131 whole entry, looked up, canonical isoform): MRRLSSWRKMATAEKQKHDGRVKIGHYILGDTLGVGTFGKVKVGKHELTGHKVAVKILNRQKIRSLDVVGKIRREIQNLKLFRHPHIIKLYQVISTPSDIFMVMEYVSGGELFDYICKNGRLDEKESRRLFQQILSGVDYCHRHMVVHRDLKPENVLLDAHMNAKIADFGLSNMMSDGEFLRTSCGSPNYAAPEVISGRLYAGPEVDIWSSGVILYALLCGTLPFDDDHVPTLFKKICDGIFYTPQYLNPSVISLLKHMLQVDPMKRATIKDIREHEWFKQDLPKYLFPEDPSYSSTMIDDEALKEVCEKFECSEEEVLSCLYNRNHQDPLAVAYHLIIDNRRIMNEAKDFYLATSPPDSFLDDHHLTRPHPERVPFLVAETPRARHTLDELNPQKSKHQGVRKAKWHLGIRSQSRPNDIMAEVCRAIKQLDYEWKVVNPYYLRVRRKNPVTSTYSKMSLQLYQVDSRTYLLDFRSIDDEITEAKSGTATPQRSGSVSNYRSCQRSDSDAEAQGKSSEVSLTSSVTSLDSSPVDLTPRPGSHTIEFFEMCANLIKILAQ

Question: For `CC(C)n1cc(-c2cc(-c3ccc(CN4CCOCC4)cc3)cnc2N)nn1`, which inhibition [1] is on record?
Answer: 13.1%

Question: What about the inhibition [2] of the same compound?
Answer: 4%

Question: And the inhibition [3]?
Answer: -6.7%

Question: And the inhibition [4]?
Answer: -1.1%

Question: And the inhibition [5]?
Answer: 8.5%

Question: And the inhibition [6]?
Answer: -7.5%

Question: And the efflux ratio [7]?
Answer: 0.68

Question: And the inhibition [8]?
Answer: 21%

Question: And the inhibition [9]?
Answer: 15.9%

Question: What about the inhibition [10] of the same compound?
Answer: 8.2%

Question: And the inhibition [11]?
Answer: 8%
